# Source: patent publication US20210187127A1, “CHALLENGE TEST FOR DIAGNOSING A SUBTYPE OF AUTISM SPECTRUM DISEASE” (STALICLA SA, priority 2017, published 2021)
# Read-outs that look alike come from different tables or passages of the source.
# Legend:
# [1] = tested on: lymphoblastoid cell lines of ASD phenotype 1 patients; assay: Biolog Phenotype Mammalian MicroArrays, NADH production (redox dye); type: cell-based, human; settings: cells exposed to the growth factor or cytokine; FIG. 1 (AUC) and Table 1
# Protocol: From all subjects, blood samples were collected and lymphoblastoid cell lines generated. Briefly, tubes containing anticoagulant citrate dextrose (ACD) were used to collect blood samples via venipuncture, in order to ensure that the blood cells remained metabolically active. The tubes were kept at room temperature and processed within 24 hours.
# Cell lines were obtained by immortalization of lymphocytes from blood samples using Epstein-Barr virus.
# Energy production of cells was measured using commercially available Phenotype Mammalian MicroArrays (PM-Ms, Biolog, Hayward, Calif., USA).
# The compound in each well was designed to be used by the cells, either as the sole energy source or as the metabolic effector influencing the utilization of an energy source (α-D-glucose) added in the cell suspension. […] Before plating, cell viability and number were assessed utilizing a BioRad cell counter and a trypan blue dye. The concentration of live cells required for plating was 4×10^5 cells/mL, corresponding to 20,000 cells per well in a volume of 50 μL. […] Cells were incubated for 48 h at 37° C. in 5% CO2, using the modified Biolog IF-M1 medium.
# The Biolog IF-M1 medium was modified for plates PM-M1 to M4 by adding the following to 100 mL of Biolog IF-M1: 1.1 mL of 100× penicillin/streptomycin solution, 0.16 mL of 200 mM glutamine (final concentration 0.3 mM), and 5.3 mL of Fetal Bovine Serum (FBS, final concentration 5%). For plates PM-M5 to M8, 5.5 mM α-D-glucose will be added in place of FBS.
# During the 48-hour incubation, the only energy source the cells had was the chemical in the well. After this first incubation, Biolog Redox Dye Mix MB was added (10 μL/well) and the plates were incubated under the same conditions for an additional 24 hours. As the cells metabolized the energy source, tetrazolium dye in the media was reduced, producing a purple color according to the amount of NADH generated.
# For the last 24 hours of the experiment, the plates were incubated in the Omnilog system, which collects optical density readings every 15 minutes, generating 96 data-points for each well. The system also elaborated the kinetic curve for the metabolic reaction in each well and extrapolated parameters such as slope, highest point, endpoint, area under the curve (AUC), and lag.
# At the end of the 24-hour incubation, the plates were analyzed utilizing a microplate reader with readings at 590 and 750 nm. The first value (A590) indicated the highest absorbance peak of the redox dye and the second value (A750) gave a measure of the background noise. The relative absorbance (A590-750) was calculated per well.
# [2] = tested on: ASD phenotype 1 patients; assay: Challenge test with broccoli sprout extract (sulforaphane), behavioral scores; type: in vivo, humans; settings: selected patient cohort
# Protocol: (§1) The effects of sulforaphane containing Broccoli sprout extract was observed and quantified in 7 individuals suffering from ASD and previously classified as either phenotype 1 or phenotype 2 patients.
# The extract was prepared from selected broccoli seeds known to have high yield of sulforaphane which were surface-disinfected and grown (sprouted) for 3 days in a commercial sprouting facility under controlled light and moisture conditions.
# [3] = tested on: ASD phenotype 2 patients; settings: for CGI-I: after 3 days of administration; for CGI-I / GGI-S: 7-point scale; for Clinical significance / GGI-S: after challenge test; for ADI-R-RI S score / ADI-R-C S score / ADI-R-SI S score: day 3 of challenge test; for ADI-R-SI S score: baseline 16; for ADI-R-C Change (%) / ADI-R-RI Change (%) / ADI-R-SI Change (%): day 3 vs baseline
# Protocol: as §1
# We describe a procedure consisting of an evaluation of patients with ASD prior and after administration of broccoli sprout extract. The extract was prepared from selected broccoli seeds known to have high yield of sulforaphane which were surface-disinfected and grown (sprouted) for 3 days in a commercial sprouting facility under controlled light and moisture conditions. A boiling water extract was prepared, filtered, cooled, and treated with the enzyme myrosinase (from daikon sprouts) to convert precursor glucosinolates to isothiocyanates. Behavioral evaluation of patients was performed prior, during and after administration of sulforaphane-containing broccoli sprout extract. Baseline evaluation of patients was performed using standard clinical endpoints (ADI-R subscales ADI-SI, ADI-C and ADI-RI).
# Challenge regimen consisted of the administration of a Broccoli Sprout Extract dose corresponding to a total daily dosage of 4 μmol/kg of sulforaphane, administered in 3 doses over the course of the day.
# The assessment of baseline scores and post challenge test scores was conducted by two experienced clinicians with extensive experience in conducting ASD clinical assessments, both of which separately rated the patients. In case of diverging scores in test subscales at baseline or after administration of the challenge test, the lowest severity score was retained. Assessment of clinical endpoints was performed at day 3 of administration of challenge test. Behavioral Outcome Measures: (primary efficacy endpoints): ABC, SRS; CGI-S, CGI-I and ADI-R (ADI-SI, ADI-C, ADI-RI).
# [4] = Singh K et al., PNAS 2014; cited from earlier work
# [5] = Example 4 Patient 1 (phenotype 2)
# [6] = Example 4 Patient 2 (phenotype 2)
molecule,measurement,setting,value
IGF-I: insulin-like growth factor 1,production of NADH in ASD phenotype 1 cells compared to TDs and non-phenotype 1 cells,[1],no significant differences
FGF-1(aFGF): growth factor that selectively targets the PI3K-Akt-mTOR pathway,production of NADH in ASD phenotype 1 cells compared to TDs and non-phenotype 1 cells,[1],significantly reduced production of NADH
"C[S@@+]([O-])CCCCN=C=S [sulforaphane, 1-isothiocyanato-4R-(methylsulfinyl)butane]","reducing disease severity as measured through the ADI-R, SRS and GGI-S/CGI-I",[2],not effective
same,CGI-I,[3]; [5],2
same,Clinical significance,[3]; [5],Very much improved
same,GGI-S,[3]; [5],4
same,ADI-R-RI S score,"[3]; Example 4 Patient 1 (phenotype 2), baseline 3",3
same,ADI-R-C S score,"[3]; Example 4 Patient 1 (phenotype 2), baseline 12",10
same,ADI-R-SI S score,[3]; [5],12
same,ADI-R-C Change (%),[3]; [5],−20%
same,ADI-R-RI Change (%),[3]; [5],0%
same,ADI-R-SI Change (%),[3]; [5],−33%
same,CGI-I,[3]; [6],2
same,Clinical significance,[3]; [6],Very much improved
same,GGI-S,[3]; [6],4
same,ADI-R-RI S score,"[3]; Example 4 Patient 2 (phenotype 2), baseline 5",4
same,ADI-R-C S score,"[3]; Example 4 Patient 2 (phenotype 2), baseline 11",9
same,ADI-R-SI S score,[3]; [6],14
same,ADI-R-C Change (%),[3]; [6],−22%
same,ADI-R-RI Change (%),[3]; [6],−25%
same,ADI-R-SI Change (%),[3]; [6],−14%
same,tolerability of administration to humans,[4],well tolerated
same,toxicity,[4],low toxicity
IL-1beta: Th1 cytokine,production of NADH in ASD phenotype 1 cells compared to TDs and non-phenotype 1 cells,[1],significantly lower levels of NADH
IL-6: Th1 cytokine,production of NADH in ASD phenotype 1 cells compared to TDs and non-phenotype 1 cells,[1],significantly lower levels of NADH
PDGF-AB: platelet-derived growth factor AB,production of NADH in ASD phenotype 1 cells compared to TDs and non-phenotype 1 cells,[1],no significant differences
hGH(Somatotropin): growth factor that selectively targets the PI3K-Akt-mTOR pathway,production of NADH in ASD phenotype 1 cells compared to TDs and non-phenotype 1 cells,[1],significantly reduced production of NADH
